Assay results taken from US20070202548A1, “SCREENING ASSAY TO IDENTIFY INHIBITORS OF THE MURD ENZYME USING AN ACTIVATOR-I[…] ENZYME” (priority 2002, published 2007).

Legend:
E. faecalis MurD [1] = molecular target: T1, E. faecalis MurD (Enterococcus faecalis, UniProt O07108, A218V/A300V/N165D/T307K); assay: stability of E. faecalis Mur D in DMSO; assay type: biochemical; conditions: DMSO concentration up to 5%, FIG. 4
[2] = test system: Staphylococcus aureus Mur D enzyme; assay: salt activation of S. aureus MurD; assay type: biochemical; conditions: FIG. 2
E. faecalis MurD [3] = molecular target: T1, E. faecalis MurD; assay type: biochemical; conditions: FIG. 1 / FIG. 3
E. coli enzyme (MurD) = E. coli enzyme (MurD) (Escherichia coli, UniProt P14900); conditions: FIG. 3
Chain of E. coli enzyme (MurD) (P14900 whole entry): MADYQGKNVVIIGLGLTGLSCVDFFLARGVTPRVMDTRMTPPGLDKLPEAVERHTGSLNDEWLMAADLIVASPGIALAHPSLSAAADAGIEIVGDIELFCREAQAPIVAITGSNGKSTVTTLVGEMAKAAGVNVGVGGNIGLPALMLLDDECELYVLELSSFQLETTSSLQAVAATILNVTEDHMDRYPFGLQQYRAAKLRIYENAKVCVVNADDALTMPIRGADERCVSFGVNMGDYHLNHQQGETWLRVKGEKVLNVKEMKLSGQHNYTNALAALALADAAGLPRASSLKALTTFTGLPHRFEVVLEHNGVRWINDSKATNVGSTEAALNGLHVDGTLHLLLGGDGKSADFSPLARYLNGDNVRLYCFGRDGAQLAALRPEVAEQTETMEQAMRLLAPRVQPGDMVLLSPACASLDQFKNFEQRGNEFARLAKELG

T1 sequence (O07108 whole entry N165D/A218V/A300V/T307K): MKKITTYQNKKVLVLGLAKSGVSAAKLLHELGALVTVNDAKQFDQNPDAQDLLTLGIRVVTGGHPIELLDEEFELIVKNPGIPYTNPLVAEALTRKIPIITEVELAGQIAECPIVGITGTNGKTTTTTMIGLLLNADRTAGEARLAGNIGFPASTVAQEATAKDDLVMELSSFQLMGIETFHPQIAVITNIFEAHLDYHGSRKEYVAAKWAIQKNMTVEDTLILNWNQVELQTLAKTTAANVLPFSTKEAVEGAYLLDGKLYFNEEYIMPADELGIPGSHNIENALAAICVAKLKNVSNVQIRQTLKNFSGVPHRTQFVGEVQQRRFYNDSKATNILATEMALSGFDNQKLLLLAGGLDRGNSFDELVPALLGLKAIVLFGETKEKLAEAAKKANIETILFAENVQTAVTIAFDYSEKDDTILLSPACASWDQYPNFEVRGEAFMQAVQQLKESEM

Row | SMILES | activation of S. aureus Mur D enzyme by cations [2] | effect of salt on E. faecalis MurD enzyme activity (E. faecalis MurD [3]) | further results
1 | C[S+](C)[O-] [DMSO, dimethylsulfoxide] | – | – | effect of DMSO on E. faecalis MurD (E. faecalis MurD [1]): not affected
2 | [K+] [K^+, potassium] | activated | – | –
3 | N [NH4^+, ammonium] | activated | – | –
4 | O=S(=O)(O)O [SO4-ions] | – | inhibitor | –
5 | N.O=CO [ammonium formate] | – | independent | dependence of E. coli enzyme activity on presence of salt (E. coli enzyme (MurD)): dependent
